From PMC5218480 (PLoS ONE, 2017)

Tested on: MV-4-11 cells
Assay: Gene expression microarray analysis (Affymetrix PrimeView) and GSEA
Type: cell-based, human
Parameters: RFU PODN (11730768_x_at) / Fold change /veh PODN (11730768_x_at) / RFU LINC00158 (11744669_a_at) / Fold change /veh LINC00158 (11744669_a_at) / RFU DUSP10 (11751237_a_at) / Fold change /veh DUSP10 (11751237_a_at) / RFU ID3 (11757404_x_at) / Fold change /veh ID3 (11757404_x_at) / RFU PLEKHG5 (11737974_s_at) / Fold change /veh PLEKHG5 (11737974_s_at) / RFU LRRC4B (11730491_at) / Fold change /veh LRRC4B (11730491_at) / RFU GIMAP4 (11747438_a_at) / Fold change /veh GIMAP4 (11747438_a_at) / RFU KRT8 (11758183_x_at) / Fold change /veh KRT8 (11758183_x_at) / RFU CNN1 (11734310_a_at) / Fold change /veh CNN1 (11734310_a_at) / RFU VPS37D (11726825_at) / Fold change /veh VPS37D (11726825_at) / RFU C10orf10 (11716522_x_at) / Fold change /veh C10orf10 (11716522_x_at) / RFU KIR2DL2 /// KIR2DL4 /// KIR2DL5A /// KIR2DL5B /// KIR2DS1 /// KIR2DS2 /// KIR2DS3 /// KIR2DS4 /// KIR3DL3 /// KIR3DL3 /// KIR3DS1 (11738374_at) / Fold change /veh KIR2DL2 /// KIR2DL4 /// KIR2DL5A /// KIR2DL5B /// KIR2DS1 /// KIR2DS2 /// KIR2DS3 /// KIR2DS4 /// KIR3DL3 /// KIR3DL3 /// KIR3DS1 (11738374_at) / RFU C1QL1 (11718748_at) / Fold change /veh C1QL1 (11718748_at) / RFU TMPRSS4 (11747572_a_at) / Fold change /veh TMPRSS4 (11747572_a_at) / RFU HAMP (11756126_x_at) / Fold change /veh HAMP (11756126_x_at) / RFU RNFT2 (11725882_a_at) / Fold change /veh RNFT2 (11725882_a_at) / RFU NR4A2 (11747474_a_at) / Fold change /veh NR4A2 (11747474_a_at) / RFU ABCC12 (11746883_a_at) / Fold change /veh ABCC12 (11746883_a_at) / RFU TMEM136 (11760407_x_at) / Fold change /veh TMEM136 (11760407_x_at) / RFU CLDN22 /// WWC2 (11732394_at) / Fold change /veh CLDN22 /// WWC2 (11732394_at) / RFU HLA-DPB1 (11760878_x_at) / Fold change /veh HLA-DPB1 (11760878_x_at) / RFU SPINT1 (11716480_a_at) / Fold change /veh SPINT1 (11716480_a_at) / RFU GAP43 (11754022_s_at) / Fold change /veh GAP43 (11754022_s_at) / RFU A4GNT (11735810_at) / Fold change /veh A4GNT (11735810_at) / RFU PRB3 (11715151_x_at) / Fold change /veh PRB3 (11715151_x_at) / RFU TUBB4B (11761932_at) / Fold change /veh TUBB4B (11761932_at) / RFU CAPN14 (11732068_a_at) / Fold change /veh CAPN14 (11732068_a_at) / RFU TMCC2 (11721928_a_at) / Fold change /veh TMCC2 (11721928_a_at) / RFU IRGQ (11745062_a_at) / Fold change /veh IRGQ (11745062_a_at) / RFU FAM174B (11720279_a_at) / Fold change /veh FAM174B (11720279_a_at) / RFU TMPRSS4 (11748680_a_at) / Fold change /veh TMPRSS4 (11748680_a_at) / RFU FAM212B (11763350_a_at) / Fold change /veh FAM212B (11763350_a_at) / RFU PLEKHG5 (11743358_a_at) / Fold change /veh PLEKHG5 (11743358_a_at) / RFU ZSCAN30 (11745921_a_at) / Fold change /veh ZSCAN30 (11745921_a_at) / RFU CMKLR1 (11741424_a_at) / Fold change /veh CMKLR1 (11741424_a_at) / RFU LOC101060620 /// MAPK8IP1 (11723275_at) / Fold change /veh LOC101060620 /// MAPK8IP1 (11723275_at) / RFU SPTSSB (11747773_x_at) / Fold change /veh SPTSSB (11747773_x_at) / RFU PRSS12 (11739890_at) / Fold change /veh PRSS12 (11739890_at) / RFU BIN1 (11741810_x_at) / Fold change /veh BIN1 (11741810_x_at) / RFU WNT11 (11732464_a_at) / Fold change /veh WNT11 (11732464_a_at) / RFU C10orf10 (11716521_a_at) / Fold change /veh C10orf10 (11716521_a_at) / RFU C5orf56 (11738089_at) / Fold change /veh C5orf56 (11738089_at) / RFU CYB561 (11721691_x_at) / Fold change /veh CYB561 (11721691_x_at) / RFU ANKRD19P (11752326_a_at) / Fold change /veh ANKRD19P (11752326_a_at) / RFU OR2T12 /// OR2T33 /// OR2T8 (11738714_s_at) / Fold change /veh OR2T12 /// OR2T33 /// OR2T8 (11738714_s_at) / RFU VCAN (11748164_a_at) / Fold change /veh VCAN (11748164_a_at) / RFU JSRP1 (11732532_at) / Fold change /veh JSRP1 (11732532_at) / RFU KRTAP10-11 (11738290_x_at) / Fold change /veh KRTAP10-11 (11738290_x_at) / RFU MYO3A (11730013_a_at) / Fold change /veh MYO3A (11730013_a_at) / RFU EBF3 (11725865_a_at) / Fold change /veh EBF3 (11725865_a_at) / RFU CAMK2N1 (11719241_x_at) / Fold change /veh CAMK2N1 (11719241_x_at) / RFU C5orf56 (11738088_a_at) / Fold change /veh C5orf56 (11738088_a_at) / RFU OLFML3 (11715873_a_at) / Fold change /veh OLFML3 (11715873_a_at) / RFU LOC100653217 /// NTM (11731650_a_at) / Fold change /veh LOC100653217 /// NTM (11731650_a_at) / RFU MAPK11 (11762145_a_at) / Fold change /veh MAPK11 (11762145_a_at) / RFU FIZ1 (11724087_x_at) / Fold change /veh FIZ1 (11724087_x_at) / RFU OASL (11726364_x_at) / Fold change /veh OASL (11726364_x_at) / RFU SOX15 (11748057_x_at) / Fold change /veh SOX15 (11748057_x_at) / RFU CD79A (11719716_a_at) / Fold change /veh CD79A (11719716_a_at) / RFU HIST1H1D (11736915_at) / Fold change /veh HIST1H1D (11736915_at) / RFU CASKIN2 (11723855_a_at) / Fold change /veh CASKIN2 (11723855_a_at) / RFU LOC730098 (11760151_x_at) / Fold change /veh LOC730098 (11760151_x_at) / RFU OR4N2 (11742367_at) / Fold change /veh OR4N2 (11742367_at) / RFU PRRT2 (11749266_a_at) / Fold change /veh PRRT2 (11749266_a_at) / RFU SNX32 (11753110_a_at) / Fold change /veh SNX32 (11753110_a_at) / RFU CDHR5 (11726645_a_at) / Fold change /veh CDHR5 (11726645_a_at) / RFU RCAN1 (11760418_a_at) / Fold change /veh RCAN1 (11760418_a_at) / RFU FAM167A (11723789_a_at) / Fold change /veh FAM167A (11723789_a_at) / RFU FAM26E (11764081_at) / Fold change /veh FAM26E (11764081_at) / RFU ISYNA1 (11749810_s_at) / Fold change /veh ISYNA1 (11749810_s_at) / RFU ACY1 (11761880_at) / Fold change /veh ACY1 (11761880_at) / RFU 11764098_at / Fold change /veh 11764098_at / RFU SAMD14 (11745864_x_at) / Fold change /veh SAMD14 (11745864_x_at) / RFU NPB (11741838_a_at) / Fold change /veh NPB (11741838_a_at) / RFU TMPRSS6 (11731388_a_at) / Fold change /veh TMPRSS6 (11731388_a_at) / RFU KRTAP10-2 (11738614_at) / Fold change /veh KRTAP10-2 (11738614_at) / RFU ARHGAP8 /// PRR5-ARHGAP8 (11727945_x_at) / Fold change /veh ARHGAP8 /// PRR5-ARHGAP8 (11727945_x_at) / RFU KRTAP5-7 /// NADSYN1 (11734609_at) / Fold change /veh KRTAP5-7 /// NADSYN1 (11734609_at) / RFU RASL12 (11751679_a_at) / Fold change /veh RASL12 (11751679_a_at) / RFU CDKN2B (11736163_a_at) / Fold change /veh CDKN2B (11736163_a_at) / RFU PRF1 (11729649_at) / Fold change /veh PRF1 (11729649_at) / RFU, ZNF638 /// ZNF638-IT1 / Fold change vs veh, ZNF638 /// ZNF638-IT1 / RFU, PANK3 / Fold change vs veh, PANK3 / RFU, SH3YL1 / Fold change vs veh, SH3YL1 / RFU, ZEB2 / Fold change vs veh, ZEB2 / RFU, NRIP1 / Fold change vs veh, NRIP1 / RFU, PTTG1IP / Fold change vs veh, PTTG1IP / RFU, CAPN2 / Fold change vs veh, CAPN2 / RFU, MED14 / Fold change vs veh, MED14 / RFU, SNORA58 / Fold change vs veh, SNORA58 / RFU, C1orf63 / Fold change vs veh, C1orf63 / RFU, LRRFIP1 / Fold change vs veh, LRRFIP1 / RFU, NDUFAF7 / Fold change vs veh, NDUFAF7 / RFU, SLC12A2 / Fold change vs veh, SLC12A2 / RFU, IBTK / Fold change vs veh, IBTK / RFU, ESF1 / Fold change vs veh, ESF1 / Fold change vs veh, TMEM50B / RFU, TAOK1 / Fold change vs veh, TAOK1 / RFU, ACBD3 / Fold change vs veh, ACBD3 / RFU, TMA16 / Fold change vs veh, TMA16 / RFU, RWDD3 / Fold change vs veh, RWDD3 / RFU, BCAT1 / Fold change vs veh, BCAT1 / RFU, EDEM3 / Fold change vs veh, EDEM3 / RFU, TMEM33 / Fold change vs veh, TMEM33 / RFU, WDR75 / Fold change vs veh, WDR75 / RFU, AHCTF1 / Fold change vs veh, AHCTF1 / RFU, TFRC / Fold change vs veh, TFRC / RFU, ZDHHC17 / Fold change vs veh, ZDHHC17 / RFU, NOM1 / Fold change vs veh, NOM1 / RFU, ARL8B / Fold change vs veh, ARL8B / RFU, ZBTB11 / Fold change vs veh, ZBTB11 / RFU, TAMM41 / Fold change vs veh, TAMM41 / RFU, KIAA1704 /// LOC100996395 / Fold change vs veh, KIAA1704 /// LOC100996395 / RFU, ING1 / Fold change vs veh, ING1 / RFU, TRMT61B / Fold change vs veh, TRMT61B / RFU, FUBP3 / Fold change vs veh, FUBP3 / RFU, TP53 / Fold change vs veh, TP53 / RFU, TNKS2 / Fold change vs veh, TNKS2 / RFU, ZFP14 / Fold change vs veh, ZFP14 / RFU, ACTR2 / Fold change vs veh, ACTR2 / RFU, PPP3R1 / Fold change vs veh, PPP3R1 / RFU, PIK3R1 / Fold change vs veh, PIK3R1 / RFU, HNRNPA1 / Fold change vs veh, HNRNPA1 / RFU, RNF170 / Fold change vs veh, RNF170 / RFU, ZNF28 / Fold change vs veh, ZNF28 / RFU, RNGTT / Fold change vs veh, RNGTT / RFU, OGT / Fold change vs veh, OGT / RFU, BRD1 / Fold change vs veh, BRD1 / RFU, MARS / Fold change vs veh, MARS / RFU, ZNF655 / Fold change vs veh, ZNF655 / RFU, FAHD1 / Fold change vs veh, FAHD1 / RFU, BDP1 / Fold change vs veh, BDP1 / RFU, LRRCC1 / Fold change vs veh, LRRCC1 / RFU, ARID1A / Fold change vs veh, ARID1A / RFU, ZNF146 / Fold change vs veh, ZNF146 / RFU, ZNF330 / Fold change vs veh, ZNF330 / RFU, GPN3 / Fold change vs veh, GPN3 / RFU, C9orf123 / Fold change vs veh, C9orf123 / RFU, N4BP2L2 / Fold change vs veh, N4BP2L2 / RFU, ARFIP1 / Fold change vs veh, ARFIP1 / RFU, FAM179B / Fold change vs veh, FAM179B / RFU, BCL10 / Fold change vs veh, BCL10 / RFU, UHRF1BP1L / Fold change vs veh, UHRF1BP1L / RFU, BET1 / Fold change vs veh, BET1 / RFU, CNOT2 / Fold change vs veh, CNOT2 / RFU, ZNF268 / Fold change vs veh, ZNF268 / Fold change vs veh, ZNF507 / RFU, DGCR2 / Fold change vs veh, DGCR2 / RFU, WDSUB1 / Fold change vs veh, WDSUB1 / Fold change vs veh, HSP90B1 /// MIR3652 / RFU, ADSS / Fold change vs veh, ADSS / RFU, GK / Fold change vs veh, GK / RFU, ZNF148 / Fold change vs veh, ZNF148 / RFU, TAF9 / Fold change vs veh, TAF9 / RFU, SLC1A5 / Fold change vs veh, SLC1A5 / RFU, SLMO2 / Fold change vs veh, SLMO2 / RFU, ABCC4 / Fold change vs veh, ABCC4 / RFU, LOC101060439 /// RAP1B / Fold change vs veh, LOC101060439 /// RAP1B / RFU, RFX7 / Fold change vs veh, RFX7 / RFU, GTPBP10 / Fold change vs veh, GTPBP10 / RFU, CNEP1R1 / Fold change vs veh, CNEP1R1 / RFU, BIVM-ERCC5 /// ERCC5 / Fold change vs veh, BIVM-ERCC5 /// ERCC5 / RFU, ILF3 / Fold change vs veh, ILF3 / RFU 11762660_at / Fold change /veh 11762660_at / RFU VCAN (11757783_s_at) / Fold change /veh VCAN (11757783_s_at) / RFU DDX43 (11728927_at) / Fold change /veh DDX43 (11728927_at) / RFU KRT8 (11758188_x_at) / Fold change /veh KRT8 (11758188_x_at) / RFU NKD1 (11759106_at) / Fold change /veh NKD1 (11759106_at) / RFU SRD5A1 (11742802_a_at) / Fold change /veh SRD5A1 (11742802_a_at) / RFU TPSAB1 /// TPSB2 (11721975_s_at) / Fold change /veh TPSAB1 /// TPSB2 (11721975_s_at) / RFU GSTM3 (11746129_a_at) / Fold change /veh GSTM3 (11746129_a_at) / RFU IL23R (11737362_x_at) / Fold change /veh IL23R (11737362_x_at) / RFU TMEM51 (11727254_a_at) / Fold change /veh TMEM51 (11727254_a_at) / RFU PIWIL2 (11732686_x_at) / Fold change /veh PIWIL2 (11732686_x_at) / RFU ORM1 (11744905_x_at) / Fold change /veh ORM1 (11744905_x_at) / RFU CCDC152 (11743942_at) / Fold change /veh CCDC152 (11743942_at) / RFU ECM1 (11717891_a_at) / Fold change /veh ECM1 (11717891_a_at) / RFU IL23R (11748794_a_at) / Fold change /veh IL23R (11748794_a_at) / RFU TNFAIP8L3 (11732012_x_at) / Fold change /veh TNFAIP8L3 (11732012_x_at) / RFU MBOAT4 (11741988_at) / Fold change /veh MBOAT4 (11741988_at) / RFU 11764193_at / Fold change /veh 11764193_at / RFU TMEM53 (11763286_at) / Fold change /veh TMEM53 (11763286_at) / RFU MAGEB2 (11727129_at) / Fold change /veh MAGEB2 (11727129_at) / RFU TMEM200A (11744735_a_at) / Fold change /veh TMEM200A (11744735_a_at) / RFU CCDC152 (11751479_a_at) / Fold change /veh CCDC152 (11751479_a_at) / RFU FAM211A (11726209_a_at) / Fold change /veh FAM211A (11726209_a_at) / RFU RGS16 (11746705_a_at) / Fold change /veh RGS16 (11746705_a_at) / RFU VCAN (11755009_s_at) / Fold change /veh VCAN (11755009_s_at) / RFU RHOB (11743442_s_at) / Fold change /veh RHOB (11743442_s_at) / RFU RGS16 (11720943_a_at) / Fold change /veh RGS16 (11720943_a_at) / RFU RGS16 (11720944_at) / Fold change /veh RGS16 (11720944_at) / RFU, VPS4B / Fold change vs veh, VPS4B / RFU, CREB1 / Fold change vs veh, CREB1 / RFU, DNAJC13 / Fold change vs veh, DNAJC13 / RFU, GNAQ / Fold change vs veh, GNAQ / RFU, CDK5R1 / Fold change vs veh, CDK5R1 / RFU, ZRANB3 / Fold change vs veh, ZRANB3 / RFU, CUL4A / Fold change vs veh, CUL4A / RFU, CCNY / Fold change vs veh, CCNY / RFU, UFL1 / Fold change vs veh, UFL1 / RFU, COG3 / Fold change vs veh, COG3 / RFU, DIAPH2 / Fold change vs veh, DIAPH2 / RFU, SKA2 / Fold change vs veh, SKA2 / RFU, AFF3 / Fold change vs veh, AFF3 / RFU, LMF1 / Fold change vs veh, LMF1 / RFU, IPO11 / Fold change vs veh, IPO11 / RFU, DFFB / Fold change vs veh, DFFB / RFU, FOXP1 / Fold change vs veh, FOXP1 / RFU, CARD8 / Fold change vs veh, CARD8 / RFU, STRN3 / Fold change vs veh, STRN3 / RFU, ADK / Fold change vs veh, ADK / RFU, RASSF2 / Fold change vs veh, RASSF2 / RFU, WIPF1 / Fold change vs veh, WIPF1 / RFU, LARP1B / Fold change vs veh, LARP1B / RFU, RASA1 / Fold change vs veh, RASA1 / RFU, RB1 / Fold change vs veh, RB1 / RFU, PPFIA1 / Fold change vs veh, PPFIA1 / RFU, MAT2A / Fold change vs veh, MAT2A / RFU, CCT5 / Fold change vs veh, CCT5 / RFU, WDR92 / Fold change vs veh, WDR92 / RFU, CUX1 / Fold change vs veh, CUX1 / RFU, TTC7A / Fold change vs veh, TTC7A / RFU, TMEM135 / Fold change vs veh, TMEM135 / RFU, DEPTOR / Fold change vs veh, DEPTOR / RFU, CPM / Fold change vs veh, CPM / RFU, DNAJB6 / Fold change vs veh, DNAJB6 / RFU, CACNA2D3 / Fold change vs veh, CACNA2D3 / RFU, DTX4 / Fold change vs veh, DTX4 / RFU, TFCP2 / Fold change vs veh, TFCP2 / RFU, GMCL1 /// GMCL1P1 / Fold change vs veh, GMCL1 /// GMCL1P1 / RFU, AEBP2 / Fold change vs veh, AEBP2 / RFU, SNHG1 /// SNORD22 /// SNORD25 /// SNORD26 /// SNORD27 /// SNORD28 /// SNORD29 /// SNORD31 / Fold change vs veh, SNHG1 /// SNORD22 /// SNORD25 /// SNORD26 /// SNORD27 /// SNORD28 /// SNORD29 /// SNORD31 / Fold change (Aza/veh), C12orf56 (ProbeSet 11735607_a_at) / Fold change (ACY-1035/veh), C12orf56 (ProbeSet 11735607_a_at) / Fold change (Aza/veh), FGFR1OP (ProbeSet 11751329_s_at) / Fold change (ACY-1035/veh), FGFR1OP (ProbeSet 11751329_s_at) / Fold change (Aza/veh), VPS36 (ProbeSet 11739960_a_at) / Fold change (ACY-1035/veh), VPS36 (ProbeSet 11739960_a_at) / RFU SYPL1 (11715823_x_at) / Fold change /veh SYPL1 (11715823_x_at) / RFU IGFBP7 (11715501_s_at) / Fold change /veh IGFBP7 (11715501_s_at) / RFU REEP3 (11722064_at) / Fold change /veh REEP3 (11722064_at) / RFU IGLL1 (11728026_x_at) / Fold change /veh IGLL1 (11728026_x_at): dose or concentration left out as unconfirmed
Conditions: ProbeSet 11725902_s_at; LIST D

Compound: Nc1ccc(-c2cccs2)cc1NC(=O)c1ccc2c(c1)cc(C1CC1)n2CCN1CCOCC1 [ACY-1035]
- Fold change vs veh, TMEM135: 0.99
